Our source for the IC50 values is BindingDB's records for doi:10.1021/acschembio.7b00385 (Novartis Pharma, 2017).

Holding throughout (assay): Liquid growth assay
Holding throughout (settings): 30 °C

One assay deals with Actin (Saccharomyces cerevisiae (strain ATCC 204508 / S288c), UniProt P60010). The method, then: (§1) Saturated ACT1 wild type (WT) as well as engineered ACT1 R183K (R183K) and ACT1 R335K (R335K) cultures were adjusted to 10 OD600 and 3 uL of serial 1:3 dilutions spotted on YPD agar supplemented with indicated concentrations of Chivosazole F. Growth was scored after 3 days incubation at 30 °C.

A further assay addresses Actin [R183K] (Saccharomyces cerevisiae (strain ATCC 204508 / S288c), UniProt P60010, R183K). The method, then: as §1
A further assay deals with Actin [R335K] (Saccharomyces cerevisiae (strain ATCC 204508 / S288c), UniProt P60010, R335K). The method, then: as §1

Molecules are shown by their SMILES.

For `C/C1=C\[C@@H](C)[C@@H](C)OC(=O)C[C@H](c2ccc(O)cc2)NC(=O)[C@@H](Cc2c[nH]c3ccccc23)N(C)C(=O)[C@H](C)NC(=O)[C@@H](C)C1` [CHEBI:84382], the IC50 was found to be 16.7 µM on Actin, 11.9 µM on Actin [R183K] and 15.1 µM at Actin [R335K].

For `C/C1=C/C(=O)O[C@@H]2C[C@@H](CC[C@H](C)/C=C\C=C\CC1)O[C@@](O)([C@@H]1CSC(=O)N1)C2` [LAT-A], the IC50 was 0.07 µM on Actin, 0.11 µM at Actin [R183K] and 0.04 µM at Actin [R335K].

Consider `COC1CC(O)/C=C/C=C/C=C\C(C)C(C(C)C(O)CC(C)O)OC(=O)\C=C/C=C/C=C\C(C)=C\C(C)C(O)/C=C\C=C\c2coc(n2)C1C` (centres undefined) [SCHEMBL1889389], for which the IC50 against Actin came to 0.14 µM; against Actin [R183K] it was 0.38 µM; on Actin [R335K] it was 0.27 µM.

Usually IC50 stands for the concentration that inhibits the measured activity by half. Lower therefore signals greater potency in that assay.
